Results taken from patent publication US8309540.
Where two headings read alike, the source gives them in different places.

In the case of `COC(=O)[C@@H]1C[C@@H]2CN1C(=O)[C@H](C1CCCCC1)NC(=O)OCC(C)(C)C/C=C/c1cc3c(cc(=O)[nH]c3cc1OC)O2`, the ring closure, yield of all isomers (from C=CCC(C)(C)COC(=O)N[C@H](C(=O)N1C[C@H](Oc2cc(=O)[nH]c3cc(OC)c(C=C)cc23)C[C@H]1C(=O)OC)C1CCCCC1, rcm bond, Zhan 1B, DCM, 4.96 mM, 40.0 °C, 32.0 h) was 99.5%.
For `CCOc1cc2c3cc(c(OC)cc3n1)[C@H]1C[C@@H]1CC(C)(C)COC(=O)N[C@@H](C1CCCC1)C(=O)N1C[C@@H](C[C@H]1C(=O)OC)O2`, the ring closure, yield of all isomers (from CCOc1cc(O[C@H]2CN[C@H](C(=O)OC)C2)c2cc(C3CC3CC(C)(C)COC(=O)N[C@H](C(=O)O)C3CCCC3)c(OC)cc2n1, amide bond, HATU/DIEA, DCM, 7.1 mM, 18.0 h) was 65.5%.
`CCOc1cc2c3cc(c(OC)cc3n1)/C=C/C[C@@H]1CCC[C@H]1OC(=O)N[C@@H](C1CCCC1)C(=O)N1C[C@@H](C[C@H]1C(=O)OC)O2` gave a ring closure, yield of all isomers (from C=CC[C@@H]1CCC[C@H]1OC(=O)N[C@H](C(=O)N1C[C@H](Oc2cc(OCC)nc3cc(OC)c(C=C)cc23)C[C@H]1C(=O)OC)C1CCCC1, rcm bond, Zhan 1b, DCE, 8.78 mM, 70.0 °C, 21.0 h) of 90.9%.
